Measurements from US9353107B2 (Aurigene Discovery Technologies Limited, priority 2012, dated 2016).
Structures can show the parent of a compound that is named as a salt.

Molecular target: T1, recombinant human ALK enzyme (ALK WT) (Homo sapiens, UniProt Q9UM73)
T1 construct: purchased Carna Biosciences 08-518
Experiment: ALK WT cell free enzymatic assay (TR-FRET)
Assay type: biochemical
Settings: 1 μM ATP; for IC50: 10 point dose response; for inhibition at 0.1 µM: compound at 100 nM; for inhibition at 0.1 µM / inhibition at 1 µM: 30 min pre-incubation; for inhibition at 1 µM: compound at 1 μM
Experimental: ALK Wild Type (WT) The ALK WT cell free assay was set up to evaluate the effects of these compounds as inhibitors of ALK enzyme. The enzymatic assay was standardized using recombinant human ALK enzyme (Cat#08-518) from Carna Biosciences using Ultra Light Poly GT (Cat# TRF 0100D) from Perkin Elmer as a substrate. TR-FRET (Time resolved fluorescence resonance energy transfer) detection technology was used for the read out. The final assay conditions were 50 mM HEPES pH 7.1, 10 mM MgCl2, 2 mM MnCl2, 0.01% BSA, 2.5 mM DTT, 0.1 mM Na3 VO4, 40 nM Ultra Light Poly GT, 2.5 ng ALK WT enzyme, 1 μM ATP and 125 nM Lance Eu-W1024 labeled anti phospho tyrosine antibody (Cat# AD0203, Perkin Elmer) in 384 well format. The assay reaction time with the substrate was 30 minutes after which the antibody detection mix is added. The TR-FRET signal (Excitation at 340 nm, Emission at 615 nm and 665 nm) was read with 50 μs delay time on Victor^3 V fluorimeter. The data is calculated using the ratio of reading at 665 nM to 615 nM. The final concentration of DMSO was 1% in the assay. Compounds were screened at 100 nM and 1 μM concentrations with pre-incubation of the enzymes with compound for 30 minutes. Each individual IC50 was determined using 10 point dose response curve generated by GraphPad Prism software Version 4 (San Diego, Calif., USA) using non linear regression curve fit for sigmoidal dose response (variable slope). Percentage inhibition at concentrations of 100 nM and 1.0 μM are given in table along with the IC50 (nM) details for selected examples.

T1 sequence (Q9UM73 1058-1620 limits assumed): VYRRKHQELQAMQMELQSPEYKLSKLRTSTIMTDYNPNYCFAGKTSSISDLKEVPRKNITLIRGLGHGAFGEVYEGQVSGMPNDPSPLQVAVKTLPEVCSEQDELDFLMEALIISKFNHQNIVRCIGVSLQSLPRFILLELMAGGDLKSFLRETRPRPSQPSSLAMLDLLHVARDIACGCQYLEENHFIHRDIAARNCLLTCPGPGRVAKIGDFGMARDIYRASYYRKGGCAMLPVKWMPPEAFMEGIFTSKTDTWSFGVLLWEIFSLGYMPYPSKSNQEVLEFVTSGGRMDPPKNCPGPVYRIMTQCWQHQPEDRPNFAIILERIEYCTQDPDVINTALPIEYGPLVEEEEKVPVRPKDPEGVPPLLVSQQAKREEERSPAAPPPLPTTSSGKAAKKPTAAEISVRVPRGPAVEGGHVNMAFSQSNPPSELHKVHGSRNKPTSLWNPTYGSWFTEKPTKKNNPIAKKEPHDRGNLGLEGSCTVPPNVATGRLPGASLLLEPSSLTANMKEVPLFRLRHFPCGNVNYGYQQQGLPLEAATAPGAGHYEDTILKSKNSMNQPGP

Row | SMILES | IC50 [nM] | inhibition at 0.1 µM [%] | inhibition at 1 µM [%]
1 | NC(=O)CN1CCC(Cc2cccc(-c3cnc4[nH]cc(-c5cnn(Cc6cccc(F)c6)c5)c4c3)c2)CC1 [Example 184, 2-(4-(3-(3-(1-(3-fluorobenzyl)-1H-pyrazol-4-yl)-1H-pyrrolo[2,3-b]pyridin-5-yl)benzyl)piperidin-1-yl)acetamide] | < 50 | 92 | 100
2 | Cc1nn(Cc2cccc(Cl)c2)c(C)c1-c1c[nH]c2ncc(-c3ccc(N4CCNCC4)cc3)cc12 [Example 47, 3-(1-(3-chlorobenzyl)-3,5-dimethyl-1H-pyrazol-4-yl)-5-(4-(piperazin-1-yl)phenyl)-1H-pyrrolo[2,3-b]pyridine hydrochloride] | < 50 | 90 | 100
3 | COc1cccc(Cn2cc(-c3c[nH]c4ncc(-c5ccc(C6CCNCC6)cc5)cc34)cn2)c1 [Example 87, 3-(1-(3-methoxybenzyl)-1H-pyrazol-4-yl)-5-(4-(piperidin-4-yl)phenyl)-1H-pyrrolo[2,3-b]pyridine] | < 50 | 84 | 99
4 | C[C@H](O)CN1CCN(c2ccc(-c3cnc4[nH]cc(-c5cnn(Cc6ccccc6)c5)c4c3)cn2)CC1 [Example 148, (S)-1-(4-(5-(3-(1-benzyl-1H-pyrazol-4-yl)-1H-pyrrolo[2,3-b]pyridin-5-yl)pyridin-2-yl)piperazin-1-yl)propan-2-ol] | < 50 | 94 | 100
5 | CC(=O)N1CCN(c2ccc(-c3cnc4[nH]cc(-c5c(C)nn(Cc6cccc(F)c6)c5C)c4c3)cc2)CC1 [Example 49, 1-(4-(4-(3-(1-(3-fluorobenzyl)-3,5-dimethyl-1H-pyrazol-4-yl)-1H-pyrrolo[2,3-b]pyridin-5-yl)phenyl)piperazin-1-yl)ethanone] | < 50 | 70 | 91
6 | Cc1nn(Cc2cccc(F)c2)c(C)c1-c1c[nH]c2ncc(-c3ccc(N4CCN(C[C@H](C)O)CC4)nc3)cc12 [Example 161, (2S)-1-(4-(5-(3-(1-(3-fluorobenzyl)-3,5-dimethyl-1H-pyrazol-4-yl)-1H-pyrrolo[2,3-b]pyridin-5-yl)pyridin-2-yl)piperazin-1-yl)propan-2-ol] | < 50 | 86 | 97
7 | Cc1cccc(Cn2cc(-c3c[nH]c4ncc(-c5ccc(N6CCN(C[C@H](C)O)CC6)cc5)cc34)cn2)c1 [Example 119, (S)-1-(4-(4-(3-(1-(3-methylbenzyl)-1H-pyrazol-4-yl)-1H-pyrrolo[2,3-b]pyridin-5-yl)phenyl)piperazin-1-yl)propan-2-ol] | < 50 | 86 | 93
8 | COc1ccc(-c2cnc3[nH]cc(-c4cnn(Cc5cccnc5)c4)c3c2)cc1NS(C)(=O)=O [Example 72, N-(2-methoxy-5-(3-(1-(pyridin-3-ylmethyl)-1H-pyrazol-4-yl)-1H-pyrrolo[2,3-b]pyridin-5-yl)phenyl)methanesulfonamide] | 50 to 250 | 76 | 100
9 | COc1cc(-c2cnc3[nH]cc(-c4cnn(Cc5cc(F)cc(F)c5)c4)c3c2)ccc1NS(C)(=O)=O [Example 73, N-(4-(3-(1-(3,5-difluorobenzyl)-1H-pyrazol-4-yl)-1H-pyrrolo[2,3-b]pyridin-5-yl)-2-methoxyphenyl)methanesulfonamide] | < 50 | 92 | 97
10 | NC(=O)CN1CCN(c2ccc(-c3cnc4[nH]cc(-c5cnn(Cc6cc(F)cc(F)c6)c5)c4c3)cn2)CC1 [Example 136, 2-(4-(5-(3-(1-(3,5-difluorobenzyl)-1H-pyrazol-4-yl)-1H-pyrrolo[2,3-b]pyridin-5-yl)pyridin-2-yl)piperazin-1-yl)acetamide] | < 50 | 97 | 99
11 | CS(=O)(=O)Nc1cc(-c2cnc3[nH]cc(-c4cnn(Cc5cccc(F)c5)c4)c3c2)ccc1F [Example 78, N-(2-fluoro-5-(3-(1-(3-fluorobenzyl)-1H-pyrazol-4-yl)-1H-pyrrolo[2,3-b]pyridin-5-yl)phenyl) methanesulfonamide] | < 50 | 100 | 101
12 | Cc1nn(Cc2cccc(F)c2)c(C)c1-c1c[nH]c2ncc(-c3ccc(NC4CCNCC4)cc3)cc12 [Example 101, N-(4-(3-(1-(3-fluorobenzyl)-3,5-dimethyl-1H-pyrazol-4-yl)-1H-pyrrolo[2,3-b]pyridin-5-yl)phenyl)piperidin-4-amine] | < 50 | 99 | 100
13 | Fc1cccc(Cn2cc(-c3c[nH]c4ncc(-c5ccc(N6CCNCC6)nc5)cc34)cn2)c1 [Example 132, 3-(1-(3-fluorobenzyl)-1H-pyrazol-4-yl)-5-(6-(piperazin-1-yl)pyridin-3-yl)-1H-pyrrolo[2,3-b]pyridine] | < 50 | 100 | 100
14 | COc1ccc(-c2cnc3[nH]cc(-c4c(C)nn(Cc5cc(F)ccc5F)c4C)c3c2)cc1NS(C)(=O)=O [Example 22, N-(5-(3-(1-(2,5-difluorobenzyl)-3,5-dimethyl-1H-pyrazol-4-yl)-1H-pyrrolo[2,3-b]pyridin-5-yl)-2-methoxyphenyl)methanesulfonamide] | < 50 | 62 | 87
15 | COc1cc(N2CCN(C[C@H](C)O)CC2)ccc1-c1cnc2[nH]cc(-c3cnn(Cc4cccc(F)c4)c3)c2c1 [Example 116, (S)-1-(4-(4-(3-(1-(3-fluorobenzyl)-1H-pyrazol-4-yl)-1H-pyrrolo[2,3-b]pyridin-5-yl)-3-methoxyphenyl)piperazin-1-yl)propan-2-ol] | 50 to 250 | 68 | 97
16 | CC(C)CN1CCN(c2ccc(-c3cnc4[nH]cc(-c5cnn(Cc6cccc(F)c6)c5)c4c3)cn2)CC1 [Example 152, 3-(1-(3-fluorobenzyl)-1H-pyrazol-4-yl)-5-(6-(4-isobutylpiperazin-1-yl)pyridin-3-yl)-1H-pyrrolo[2,3-b]pyridine] | < 50 | 80 | 100
17 | c1ccc(Cn2cc(-c3c[nH]c4ncc(-c5ccc(C6CCNCC6)cc5)cc34)cn2)nc1 [Example 93, 5-(4-(piperidin-4-yl)phenyl)-3-(1-(pyridin-2-ylmethyl)-1H-pyrazol-4-yl)-1H-pyrrolo[2,3-b]pyridine] | < 50 | 79 | 97
18 | Cc1nn(Cc2cccc(F)c2)cc1-c1c[nH]c2ncc(-c3ccc(C4CCNCC4)cc3)cc12 [Example 90, 3-(1-(3-fluorobenzyl)-3-methyl-1H-pyrazol-4-yl)-5-(4-(piperidin-4-yl)phenyl)-1H-pyrrolo[2,3-b]pyridine] | < 50 | 97 | 100
19 | C[C@H](O)CN1CCN(c2ccc(-c3cnc4[nH]cc(-c5cnn(CCc6ccccc6)c5)c4c3)cc2)CC1 [Example 117, (S)-1-(4-(4-(3-(1-phenethyl-1H-pyrazol-4-yl)-1H-pyrrolo[2,3-b]pyridin-5-yl)phenyl)piperazin-1-yl)propan-2-ol] | < 50 | 91 | 95
20 | CN1CCC(c2ccc(-c3cnc4[nH]cc(-c5cnn(Cc6cccc(F)c6)c5)c4c3)cc2F)CC1 [Example 170, 5-(3-fluoro-4-(1-methylpiperidin-4-yl)phenyl)-3-(1-(3-fluorobenzyl)-1H-pyrazol-4-yl)-1H-pyrrolo[2,3-b]pyridine] | < 50 | 98 | 100
21 | Cc1nn(Cc2cccc(F)c2)c(C)c1-c1c[nH]c2ncc(-c3ccc(OCCO)c(NS(C)(=O)=O)c3)cc12 [Example 24, N-(5-(3-(1-(3-fluorobenzyl)-3,5-dimethyl-1H-pyrazol-4-yl)-1H-pyrrolo[2,3-b]pyridin-5-yl)-2-(2-hydroxyethoxyl)phenyl)methanesulfonamide] | < 50 | 53 | 96
22 | COc1ccc(-c2cnc3[nH]cc(-c4cnn(Cc5cc(F)ccc5F)c4)c3c2)cc1NS(C)(=O)=O [Example 70, N-(5-(3-(1-(2,5-difluorobenzyl)-1H-pyrazol-4-yl)-1H-pyrrolo[2,3-b]pyridin-5-yl)-2-methoxyphenyl)methanesulfonamide] | < 50 | 91 | 99
23 | COc1ccc(-c2cnc3[nH]cc(-c4cnn(CCc5cccc(F)c5)c4)c3c2)cc1NS(C)(=O)=O [Example 75, N-(5-(3-(1-(3-fluorophenethyl)-1H-pyrazol-4-yl)-1H-pyrrolo[2,3-b]pyridin-5-yl)-2-methoxyphenyl)methanesulfonamide] | < 50 | 61 | 100
